Consider one compound from article PMC13493820, “Versatile Glycan Probes for Multiplatform Investigation of Glycan Interactions with Proteins, Viruses, and Cells” (Nature Communications, 2026).

SMILES strings stand for the structures.

The test addresses T1, rhesus Langerin (Macaca mulatta, UniProt F7HNH2).
T1 construct: gene CD207; array protein; construct only in supplement
The test is described as follows: glycan microarray. The format is binding. Particulars: labelled compound (FAA probe, immobilised).

T1 sequence (F7HNH2 1-328): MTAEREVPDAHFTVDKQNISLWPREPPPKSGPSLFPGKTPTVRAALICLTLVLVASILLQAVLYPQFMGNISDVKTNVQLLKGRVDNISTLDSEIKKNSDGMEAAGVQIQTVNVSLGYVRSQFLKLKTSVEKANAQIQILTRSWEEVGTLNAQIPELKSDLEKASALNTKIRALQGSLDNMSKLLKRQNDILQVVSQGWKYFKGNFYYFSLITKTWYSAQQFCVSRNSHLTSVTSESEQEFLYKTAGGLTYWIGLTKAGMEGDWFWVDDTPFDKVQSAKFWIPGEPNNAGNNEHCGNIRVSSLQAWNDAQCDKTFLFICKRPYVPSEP

`CC(=O)N[C@H]1[C@H](O[C@H]2[C@H](O)[C@@H](NC(C)=O)C(O)O[C@@H]2CO)O[C@H](CO)[C@@H](O[C@@H]2O[C@H](CO[C@H]3O[C@H](CO[C@H]4O[C@H](CO)[C@@H](O)[C@H](O)[C@@H]4O[C@H]4O[C@H](CO)[C@@H](O)[C@H](O)[C@@H]4O)[C@@H](O)[C@H](O[C@H]4O[C@H](CO)[C@@H](O)[C@H](O)[C@@H]4O[C@H]4O[C@H](CO)[C@@H](O)[C@H](O)[C@@H]4O)[C@@H]3O)[C@@H](O)[C@H](O[C@H]3O[C@H](CO)[C@@H](O)[C@H](O)[C@@H]3O[C@H]3O[C@H](CO)[C@@H](O)[C@H](O)[C@@H]3O[C@H]3O[C@H](CO)[C@@H](O)[C@H](O)[C@@H]3O)[C@@H]2O)[C@@H]1O` (stereo partly shown) [Man9GlcNAc2]: the glycan microarray result is listed as “rhesus Langerin bound almost exclusively to Man9GlcNAc2”.
